Laboratory results reported in paper PMC11396129, “Oxindole–benzothiazole hybrids as CDK2 inhibitors and anticancer agents: design, synthesis and biological evaluation” (BMC Chemistry, 2024).

Assays:
Type in all cases: cell-based, human
[1] = test system: SNB-75; assay: NCI 60 panel growth inhibition (SRB), CNS cancer; settings: SNB-75, 10 μM
Protocol: (§1) Screening of cytotoxic activity against a panel of sixty human tumor cell lines The selected compounds by NCI were evaluated for their anticancer activity in a two- stage process. […] Then, the output from the single dose screen is reported as a mean graph. […] Assay protocol. […] For a typical screening experiment, cells are inoculated into 96 well microtiter plates in 100 µL at plating densities ranging from 5000 to 40,000 cells/well depending on the doubling time of individual cell lines. […] After 24 h, two plates of each cell line are fixed in situ with TCA, to represent a measurement of the cell population for each cell line at the time of drug addition (Tz). The experimental drugs are solubilized in dimethyl sulfoxide at 400-fold the desired final maximum test concentration and stored frozen prior to use. At the time of drug addition, an aliquot of frozen concentrate is thawed and diluted to twice the desired final maximum test concentration with complete medium containing 50 µg/mL gentamicin. Additional four, 10-fold or ½ log serial dilutions are made to provide a total of five drug concentrations plus control. […] For adherent cells, the assay is terminated by the addition of cold TCA. […] The supernatant is discarded, and the plates are washed five times with tap water and air dried. […] Using the seven absorbance measurements [time zero, (Tz), control growth, (C), and test growth in the presence of drug at the five concentration levels (Ti)], the percentage growth is calculated at each of the drug concentrations levels. Percentage growth inhibition is calculated as: [(Ti Tz)/(C–Tz)] x 100 for concentrations for which Ti>/=Tz and [(Ti-Tz)/Tz] x 100 for concentrations for which Ti < Tz. Three dose response parameters are calculated for each experimental agent. […] The drug concentration resulting in total growth inhibition (TGI) is calculated from Ti = Tz. […] Values are calculated for each of these three parameters if the level of activity is reached; however, if the effect is not reached or is exceeded, the value for that parameter is expressed as greater or less than the maximum or minimum concentration tested.

[2] = test system: U251; assay: NCI 60 panel growth inhibition (SRB), CNS cancer; settings: U251, 10 μM
Protocol: as §1

[3] = test system: SNB-19; assay: NCI 60 panel growth inhibition (SRB), CNS cancer; settings: SNB-19, 10 μM
Protocol: as §1

[4] = test system: SF-295; assay: NCI 60 panel growth inhibition (SRB), CNS cancer; settings: SF-295, 10 μM
Protocol: as §1

[5] = test system: SF-539; assay: NCI 60 panel growth inhibition (SRB), CNS cancer; settings: SF-539, 10 μM
Protocol: as §1

[6] = test system: SF-268; assay: NCI 60 panel growth inhibition (SRB), CNS cancer; settings: SF-268, 10 μM
Protocol: as §1

[7] = test system: K-562; assay: NCI 60 panel growth inhibition (SRB), leukemia; settings: K-562, 10 μM
Protocol: as §1

[8] = test system: CCRF-CEM; assay: NCI 60 panel growth inhibition (SRB), leukemia; settings: 10 μM
Protocol: as §1

[9] = test system: HL-60(TB); assay: NCI 60 panel growth inhibition (SRB), leukemia; settings: HL-60(TB), 10 μM
Protocol: as §1

[10] = test system: SR; assay: NCI 60 panel growth inhibition (SRB), leukemia; settings: 10 μM
Protocol: as §1

[11] = test system: RPMI-8226; assay: NCI 60 panel growth inhibition (SRB), leukemia; settings: RPMI-8226, 10 μM
Protocol: as §1

[12] = test system: MOLT-4; assay: NCI 60 panel growth inhibition (SRB), leukemia; settings: MOLT-4, 10 μM
Protocol: as §1

[13] = test system: M14; assay: NCI 60 panel growth inhibition (SRB), melanoma; settings: M14, 10 μM
Protocol: as §1

[14] = test system: SK-MEL-5; assay: NCI 60 panel growth inhibition (SRB), melanoma; settings: SK-MEL-5, 10 μM
Protocol: as §1

[15] = test system: SK-MEL-28; assay: NCI 60 panel growth inhibition (SRB), melanoma; settings: SK-MEL-28, 10 μM
Protocol: as §1

[16] = test system: LOX IMVI; assay: NCI 60 panel growth inhibition (SRB), melanoma; settings: 10 μM
Protocol: as §1

[17] = test system: UACC-62; assay: NCI 60 panel growth inhibition (SRB), melanoma; settings: UACC-62, 10 μM
Protocol: as §1

[18] = test system: MDA-MB-435; assay: NCI 60 panel growth inhibition (SRB), melanoma; settings: MDA-MB-435, 10 μM
Protocol: as §1

[19] = test system: UACC-257; assay: NCI 60 panel growth inhibition (SRB), melanoma; settings: UACC-257, 10 μM
Protocol: as §1

[20] = test system: MALME-3M; assay: NCI 60 panel growth inhibition (SRB), melanoma; settings: 10 μM
Protocol: as §1

[21] = test system: SK-OV-3; assay: NCI 60 panel growth inhibition (SRB), ovarian cancer; settings: SK-OV-3, 10 μM
In short: (§2)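 Human tumour lines were plated according to doubling time and exposed to five-point dilution series, 10-fold or half-log, of each compound. SRB-based growth percentages used time-zero and control absorbances as references.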

[22] = test system: OVCAR-5; assay: as above; settings: OVCAR-5, 10 μM
In short: as §2

[23] = test system: OVCAR-4; assay: as above; settings: OVCAR-4, 10 μM
In short: as §2

[24] = test system: IGROV1; assay: as above; settings: IGROV1, 10 μM
In short: as §2

[25] = test system: OVCAR-3; assay: as above; settings: OVCAR-3, 10 μM
In short: as §2

SMILES | GI% [1] | GI% [2] | GI% [3] | GI% [4] | GI% [5] | GI% [6] | GI% [7] | GI% [8] | GI% [9] | GI% [10] | GI% [11] | GI% [12] | GI% [13] | GI% [14] | GI% [15] | GI% [16] | GI% [17] | GI% [18] | GI% [19] | GI% [20] | other results
O=C(COc1ccccc1-c1nc2ccccc2s1)NN=C1C(=O)Nc2ccccc21 [Compound 9a, 2-(2-(Benzo[d]thiazol-2-yl)phenoxy)-N′-(2-oxoindolin-3-ylidene)acetohydrazide] | – (GI% < 5%) | – (GI% < 5%) | 6.15% | 14.46% | 5.56% | 6.56% | – (GI% < 5%) | 20.22% | – (GI% < 5%) | – (GI% < 5%) | 21.80% | 8.23% | – (GI% < 5%) | 13.43% | – (GI% < 5%) | – (GI% < 5%) | 13.82% | – (GI% < 5%) | 6.77% | – (GI% < 5%) | GI% [21]: – (GI% < 5%); GI% [22]: – (GI% < 5%); GI% [23]: 13.08%; GI% [24]: – (GI% < 5%); GI% [25]: – (GI% < 5%)
COc1ccc2c(c1)C(=NNC(=O)COc1ccccc1-c1nc3ccccc3s1)C(=O)N2 [Compound 9c, 2-(2-(Benzo[d]thiazol-2-yl)phenoxy)-N′-(5-methoxy-2-oxoindolin-3-ylidene)acetohydrazide] | – (GI% < 5%) | – (GI% < 5%) | 7.69% | 20.67% | 5.44% | 13.85% | 30.54% | 60.17% | 15.59% | 20.98% | 48.87% | 47.19% | 5.86% | 44.97% | – (GI% < 5%) | 9.06% | 28.02% | 19.69% | – (GI% < 5%) | 13.58% | GI% [21]: – (GI% < 5%); GI% [22]: – (GI% < 5%); GI% [23]: 32.22%; GI% [24]: – (GI% < 5%); GI% [25]: – (GI% < 5%)
COc1cccc(-c2nc3ccccc3s2)c1OCC(=O)NN=C1C(=O)Nc2ccccc21 [Compound 9g, 2-(2-(Benzo[d]thiazol-2-yl)-6-methoxyphenoxy)-N′-(2-oxoindolin-3-ylidene)acetohydrazide] | – (GI% < 5%) | 8.36% | 13.10% | 29.36% | 9.46% | 5.11% | 32.23% | 41.07% | 15.30% | 18.95% | 50.80% | 49.06% | – (GI% < 5%) | 95.02% | – (GI% < 5%) | 25.54% | 46.29% | 10.97% | – (GI% < 5%) | 13.82% | GI% [21]: 8.22%; GI% [22]: – (GI% < 5%); GI% [23]: 27.14%; GI% [24]: 7.95%; GI% [25]: – (GI% < 5%)
COc1cccc(-c2nc3ccccc3s2)c1OCC(=O)NN=C1C(=O)Nc2ccc(C)cc21 [Compound 9h, 2-(2-(Benzo[d]thiazol-2-yl)-6-methoxyphenoxy)-N′-(5-methyl-2-oxoindolin-3-ylidene)acetohydrazide] | – (GI% < 5%) | 5.89% | 8.33% | 19.06% | 9.04% | – (GI% < 5%) | 26.17% | 47.56% | – (GI% < 5%) | – (GI% < 5%) | 54.14% | 43.65% | 9.67% | 62.94% | – (GI% < 5%) | – (GI% < 5%) | 34.75% | – (GI% < 5%) | – (GI% < 5%) | 16.42% | GI% [21]: 14.52%; GI% [22]: – (GI% < 5%); GI% [23]: 20.46%; GI% [24]: 6.64%; GI% [25]: – (GI% < 5%)
